# Measurements from ChEMBL document CHEMBL5113434, “Discovery of novel Thieno[2,3-d]imidazole derivatives as agonists of human STING for antitumor immunotherapy using systemic administration” (Eur J Med Chem, 2022).
# The source made the active and inactive calls. The rule behind the calls is not given here.
# Experiments:
# [1] = biological target: T1, Stimulator of interferon genes protein (Homo sapiens, UniProt Q86WV6); test: Inhibition of human wild type STING
# [2] = biological target: T2, Stimulator of interferon genes protein (Mus musculus) (UniProt Q3TBT3); test: Agonist activity at STING in mouse RAW-Lucia ISG cells assessed as fold change in ISG activation at 50 uM incubated for 24 hrs by Quanti-luc reagent based assay relative to control; assay type: cell-based; details: filed as agonist
# T2 sequence (whole entry): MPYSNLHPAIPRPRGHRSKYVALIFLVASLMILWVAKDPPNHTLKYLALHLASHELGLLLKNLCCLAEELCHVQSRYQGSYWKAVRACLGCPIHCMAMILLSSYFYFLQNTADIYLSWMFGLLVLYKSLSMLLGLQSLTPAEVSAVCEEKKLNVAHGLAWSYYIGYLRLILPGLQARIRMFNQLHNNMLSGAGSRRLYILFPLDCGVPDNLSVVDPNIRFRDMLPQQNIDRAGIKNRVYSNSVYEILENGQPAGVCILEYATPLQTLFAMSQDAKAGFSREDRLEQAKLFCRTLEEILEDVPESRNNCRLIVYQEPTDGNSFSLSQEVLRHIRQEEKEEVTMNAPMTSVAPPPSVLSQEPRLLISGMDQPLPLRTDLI
# [3] = biological target: T1, Stimulator of interferon genes protein; test: Agonist activity at STING in human THP1-Dual cells assessed as fold change in ISG activation at 10 uM incubated for 24 hrs by Quanti-luc reagent based assay relative to control; assay type: cell-based; details: filed as agonist
# [4] = biological target: T1, Stimulator of interferon genes protein; test: Agonist activity at wild type human STING in HEK cells; assay type: cell-based
# [5] = biological target: T1, Stimulator of interferon genes protein; test: Agonist activity at STING in human THP-1 cells; assay type: cell-based
# [6] = Agonist activity at human STING R232H mutant
# [7] = biological target: T1, Stimulator of interferon genes protein; test: Activation of STING pathway in human 293T-Dual hSTING-H232 cells assessed as increase in IFNbeta expression level measured for 24 hrs by SEAP reporter based Quanti-luc assay; assay type: cell-based; details: filed as activator, dose 0.01-1 µM, DDE = dose-dependent effect
# [8] = biological target: T1, Stimulator of interferon genes protein; test: Activation of STING pathway in human 293T-Dual hSTING-H232 cells assessed as increase in ISG expression level measured for 24 hrs by SEAP reporter based Quanti-luc assay; assay type: cell-based; details: filed as activator, dose 0.01-1 µM, DDE = dose-dependent effect
# [9] = biological target: T1, Stimulator of interferon genes protein; test: Activation of STING pathway in human THP1-Dual cells assessed as increase in IP-10 expression level at 0.01 to 1 uM measured for 24 hrs by chemiluminescence based analysis; assay type: cell-based; details: filed as activator, dose 0.01-1 µM
# [10] = biological target: T1, Stimulator of interferon genes protein; test: Activation of STING pathway in human THP1-Dual cells assessed as increase in IP-10 expression level at 0.1 uM measured for 24 hrs by chemiluminescence based analysis; assay type: cell-based; details: filed as activator
# [11] = biological target: T1, Stimulator of interferon genes protein; test: Activation of STING pathway in human THP1-Dual cells assessed as increase in IFNbeta expression level at 0.01 to 1 uM measured for 24 hrs by chemiluminescence based analysis; assay type: cell-based; details: filed as activator, dose 0.01-1 µM
# [12] = biological target: T1, Stimulator of interferon genes protein; test: Activation of STING pathway in human THP1-Dual cells assessed as increase in IFNbeta expression level at 0.1 uM measured for 24 hrs by chemiluminescence based analysis; assay type: cell-based; details: filed as activator
# [13] = biological target: T3, Stimulator of interferon genes protein (Mus musculus, UniProt Q3TBT3); test: Agonist activity at STING in mouse RAW-Lucia ISG cells assessed as ISG activation incubated for 24 hrs by Quanti-luc reagent based assay; assay type: cell-based
# T3 sequence (Q3TBT3 whole entry): T2 sequence (whole entry)
# [14] = biological target: T1, Stimulator of interferon genes protein; test: Agonist activity at STING in human THP1-Dual cells assessed as ISG activation incubated for 24 hrs by Quanti-luc reagent based assay; assay type: cell-based
# T1 sequence (Q86WV6 whole entry): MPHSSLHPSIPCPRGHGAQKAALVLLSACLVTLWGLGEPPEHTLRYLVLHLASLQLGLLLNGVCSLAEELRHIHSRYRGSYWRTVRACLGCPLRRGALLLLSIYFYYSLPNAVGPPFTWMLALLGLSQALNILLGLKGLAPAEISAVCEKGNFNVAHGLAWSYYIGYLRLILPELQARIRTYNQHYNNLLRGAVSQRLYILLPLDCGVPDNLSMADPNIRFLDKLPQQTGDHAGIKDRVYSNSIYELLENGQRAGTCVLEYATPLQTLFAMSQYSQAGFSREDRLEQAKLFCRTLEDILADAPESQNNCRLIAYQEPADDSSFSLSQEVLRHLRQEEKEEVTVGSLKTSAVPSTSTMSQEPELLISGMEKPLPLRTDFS
compound,measurement,setting,value
CCn1nc(C)cc1C(=O)/N=c1\[nH]c2cc(C(N)=O)ccc2n1C[C@@H](O)c1ccccc1,IC50,[1],1.4 µM
CCn1nc(C)cc1C(=O)Nc1nc2sc(C(N)=O)cc2n1CCCCn1c(NC(=O)c2cc(C)nn2CC)nc2cc(C(N)=O)cc(OCCCN3CCOCC3)c21,fold change (FC),[2],1
same,fold change (FC),[3],1.15
CCn1nc(C)cc1C(=O)Nc1nc2cc(C(N)=O)sc2n1CCCCn1c(NC(=O)c2cc(C)nn2CC)nc2cc(C(N)=O)cc(OCCCN3CCOCC3)c21,fold change (FC),[2],0.64
same,fold change (FC),[3],8.42
O=C(NCc1ccco1)c1ccc2c(c1)N(Cc1c(F)cccc1Cl)C(=O)CS2,EC50,[4],2.49 µM
O=C(Nc1cc(F)c(F)cc1C(=O)O)c1ccc(N2C=CNC2)nn1,EC50,[5],2.1 µM
CCn1nc(C)cc1C(=O)/N=c1\[nH]c2cc(C(N)=O)cc(OC)c2n1C/C=C/Cn1/c(=N/C(=O)c2cc(C)nn2CC)[nH]c2cc(C(N)=O)cc(OCCCN3CCOCC3)c21,EC50,[6],0.2 µM
same,Activity,[7],Dde
same,Activity,[8],Dde
same,Activity,[9],Active
same,Activity,[10],Active
same,Activity,[11],Active
same,Activity,[12],Active
CCn1nc(C)cc1C(=O)Nc1nc2cc(C(N)=O)sc2n1C/C=C/Cn1c(NC(=O)c2cc(C)nn2CC)nc2cc(C(N)=O)cc(OCC3CC3)c21,fold change (FC),[2],12.6
same,fold change (FC),[3],141
same,EC50,[13],> 100 µM
same,EC50,[14],0.28 µM
CCn1nc(C)cc1C(=O)Nc1nc2cc(C(N)=O)sc2n1CCCCn1c(NC(=O)c2cc(C)nn2CC)nc2cc(C(N)=O)sc21,fold change (FC),[2],2.63
same,fold change (FC),[3],1.15
